The record followed here is PMC9782510, “Natural Antioxidants, Tyrosinase and Acetylcholinesterase Inhibitors from Cercis glabra Leaves” (Molecules, 2022).

Assay [1] is described as follows: DPPH radical scavenging assay. Here is the method:
The scavenging ability on DPPH radical was conducted based on the method with some modifications. The sample solution and DPPH methanol solution (20 µL:180 µL) were added to a 96-well microplate. L-ascorbic acid was the positive control. The absorbance at 517 nm was measured using a microplate reader after the solution had stood for 30 min at 37 °C under dark conditions. The calculation formula of DPPH radical scavenging activity is consistent with the formula of ABTS radical scavenging activity.
(DPPH is a stable violet radical that fades when it is reduced.)

Assay [2] deals with Acetylcholinesterase (AChE) (Electrophorus electricus, UniProt O42275). Briefly: Acetylcholinesterase inhibitory activity (ATCI/DTNB). It counts as biochemical. The following applies: for inhibition at 1000 µg/mL: read-out: Acetylcholinesterase Inhibition (%).
Procedure: The experiment of acetylcholinesterase inhibition activity was slightly modified according to the literature [55]. Acetylcholinesterase (AChE) and acetylthiocholine iodide (ATCI) were dissolved in 0.1 M phosphate buffer (pH 8.0). 5,5′-Dithiobis-(2-nitrobenzoic acid) (DTNB) was prepared in 10 mL of 0.1 M phosphate buffer (pH 7.0) with a small amount of NaHCO3. A total of 120 µL of 0.1 M phosphate buffer (pH 8.0), 20 µL of 3 mM DTNB solution, 20 µL of sample solution and 20 µL of AChE (0.2 U/mL) were sequentially added to the 96-well microplate, and the mixture reacted for 10 min at 37 °C. The reaction was started by adding 20 µL of 3 mM ATCI and the mixture was incubated at 37 °C for 20 min. Donepezil was chosen as the positive control. […] (4) Acetylcholinesterase inhibition activity (%) =[1−(AS–Aj)/AC]×100 where As and Aj are the absorbance of the compound to be tested and tested compound blanks, respectively, and AC is the absorbance of the untreated control.
The test system of a further assay is mushroom tyrosinase. Briefly: Mushroom tyrosinase inhibitory activity (L-tyrosine substrate). Format: biochemical. The following applies: for Tyrosinase Inhibition (%): at initial concentration of 1 mg/mL, means ± SEMs; for IC50: read-out: Tyrosinase inhibition IC50.
A short description of assay [3]: ABTS radical scavenging assay. The procedure: The ABTS radical scavenging assay was modified according to the method with slight modifications. Briefly, the ABTS radical cation was obtained by mixing ABTS diammonium salt stock solution (7.4 mM) with potassium persulfate (2.6 mM) in equal proportion and reacting it at 37 °C in darkness for 12–16 h. Before used, the absorbance of light green ABTS radical test solution at 745 nm was controlled to be 0.70 ± 0.02 by diluting with methanol. Sample solution and ABTS methanol solution (10 µL:190 µL) were added to 96-well microplate, and L-ascorbic acid was the positive control. After incubation at 37 °C for 10 min, the absorbance was tested at 745 nm using a microplate reader. Scavenging rate was calculated according to Equation (1). (1) ABTS radical scavenging activity (%) =AC–AS/AC×100 where AC and AS are the absorbance of the blank control and the compounds to be tested, respectively.

A short description of assay [4]: PTIO radical scavenging assay. Here is the method: The PTIO radical scavenging activity was assayed by referring to relevant methods. Briefly, PTIO radical solid (3 mg) was dissolved in 20 mL of methanol, and sample solution and PTIO methanol solution (40 µL:160 µL) were added to a 96-well microplate. The absorbance was determined at 585 nm using a microplate reader after 30 min of incubation and the scavenging rate was calculated on the basis of Equation (2). (2) PTIO radical scavenging activity (%) =[1−AS/AC]×100 where AS is the absorbance of the compounds to be tested and AC is the absorbance of the untreated control.

Some results are limits rather than exact numbers.

Acetylcholinesterase (AChE), sequence (O42275 24-633): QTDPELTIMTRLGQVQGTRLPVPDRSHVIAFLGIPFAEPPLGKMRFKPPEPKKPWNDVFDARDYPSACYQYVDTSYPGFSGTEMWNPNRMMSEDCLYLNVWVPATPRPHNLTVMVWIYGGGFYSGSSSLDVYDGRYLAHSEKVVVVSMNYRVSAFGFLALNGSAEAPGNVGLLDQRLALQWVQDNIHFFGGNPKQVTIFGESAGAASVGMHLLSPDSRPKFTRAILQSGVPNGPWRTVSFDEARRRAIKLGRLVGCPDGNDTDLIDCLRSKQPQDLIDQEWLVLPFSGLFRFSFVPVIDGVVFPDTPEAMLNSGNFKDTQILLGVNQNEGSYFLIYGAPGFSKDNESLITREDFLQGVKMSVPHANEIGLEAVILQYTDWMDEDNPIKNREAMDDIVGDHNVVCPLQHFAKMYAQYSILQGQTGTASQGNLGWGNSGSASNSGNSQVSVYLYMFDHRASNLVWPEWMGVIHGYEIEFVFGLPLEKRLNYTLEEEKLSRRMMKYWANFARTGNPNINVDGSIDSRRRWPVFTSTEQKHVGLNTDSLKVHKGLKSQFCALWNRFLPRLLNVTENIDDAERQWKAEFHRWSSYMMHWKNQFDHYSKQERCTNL
Procedure for mushroom tyrosinase: Mushroom tyrosinase (400 U/mL) and L-tyrosine (3 mM) were added separately in 0.05 M potassium phosphate buffer (pH 6.5). A total of 80 µL of potassium phosphate buffer (pH 6.5), 80 µL of L-tyrosine (3 mM) solution, 20 µL of sample solution and 20 µL of mushroom tyrosinase (400 U/mL) were added to a 96-well microplate. The mixture reacted for 1 h at 37 °C. […] The absorbance was measured at 490 nm using a microplate reader and Equation (3) was used to calculate the inhibition rate. (3) Tyrosinase inhibition activity (%) =AC–AS/AC×100
Equation (3) is the absorbance of the test compound and AC is the absorbance of the untreated control.

By IC50 is commonly meant the point on the concentration scale where inhibition reaches its midpoint. Broadly, the inhibition is how much of the control response was suppressed. Consider `COC(=O)[C@@H](O)[C@H](OC(=O)/C=C/c1ccc(O)cc1)C(=O)OC` [Compound 1, (2′S, 3′S)-trans-4-coumaroyltartaric acid dimethyl ester], for which the IC50 was above 100000 µM in assay [1], 2630 µM on mushroom tyrosinase, above 500 µM in assay [3] and above 100000 µM in assay [4]. The inhibition at 1000 µg/mL in assay [2] was 38.43 ± 0.2%. The “Tyrosinase Inhibition (%)” value in the assay with mushroom tyrosinase came to 53.13 ± 0.65%.

In the case of `COC(=O)[C@H](O)[C@@H](OC(=O)/C=C/c1ccc(O)cc1)C(=O)O` [Compound 2, (2′R, 3′R)-trans-4-coumaroyl-4′-methoxyl-tartaric acid], the 50% inhibitory concentration (IC50) was above 100000 µM in assay [1], 2590 µM on mushroom tyrosinase, above 500 µM in assay [3] and above 100000 µM in assay [4]. The inhibition at 1000 µg/mL in assay [2] is 39.46 ± 0.25%. The “Tyrosinase Inhibition (%)” value with mushroom tyrosinase is given as 53.54 ± 0.90%.

Turning to `O=c1c(O)c(-c2cc(O)c(O)c(O)c2)oc2cc(O)cc(O)c12` [Compound 3, myricetin], the half-inhibitory concentration (IC50) in assay [1] was found to be 870 µM; at mushroom tyrosinase, 1390 µM; in assay [3], 94 µM; in assay [4], 2560 µM. The inhibition at 1000 µg/mL in assay [2] was found to be 85.27 ± 0.06%. The “Tyrosinase Inhibition (%)” value in the assay on mushroom tyrosinase was determined as 60.00 ± 1.49%.

As for `COc1cc(-c2oc3cc(O)cc(O)c3c(=O)c2O)ccc1O` [Compound 4, isorhamnetin], the IC50 in assay [1] is 6250 µM; at mushroom tyrosinase, 4690 µM; in assay [3] it was above 500 µM; in assay [4] it was 44300 µM. The inhibition at 1000 µg/mL in assay [2] amounted to 68.13 ± 0.24%. The “Tyrosinase Inhibition (%)” value in the assay on mushroom tyrosinase stood at 44.17 ± 0.85%.

`O=c1c(O)c(-c2ccc(O)c(O)c2)oc2cc(O)cc(O)c12` [Compound 5, quercetin]: the values for the IC50 in assay [1], in assay [3] and in assay [4] were 590 µM, 97 µM and 6360 µM, respectively. The inhibition at 1000 µg/mL in assay [2] was 83.65 ± 0.48%. Further, in the assay with mushroom tyrosinase, the “Tyrosinase Inhibition (%)” value was 77.29 ± 1.52%.

Regarding `O=c1c(O)c(-c2ccc(O)cc2)oc2cc(O)cc(O)c12` [Compound 6, kaempferol], the IC50 is 590 µM in assay [1], 1690 µM on mushroom tyrosinase, 108 µM in assay [3] and 14700 µM in assay [4]. For the same compound, in assay [2], the inhibition at 1000 µg/mL worked out at 82.21 ± 0.09%. Also, the “Tyrosinase Inhibition (%)” value in the assay on mushroom tyrosinase is on record as 57.50 ± 0.82%.

Consider `C[C@@H]1O[C@@H](Oc2c(-c3ccc(O)cc3)oc3cc(O)cc(O)c3c2=O)[C@H](O)[C@H](O)[C@H]1O` [Compound 7, afzelin], for which the IC50 in assay [1] was above 100000 µM; at mushroom tyrosinase, 9240 µM; in assay [3], above 500 µM; in assay [4], above 100000 µM. Besides, the “Tyrosinase Inhibition (%)” value in the assay on mushroom tyrosinase is on record as 32.71 ± 1.51%.

In the case of `C[C@@H]1O[C@@H](Oc2c(-c3ccc(O)c(O)c3)oc3cc(O)cc(O)c3c2=O)[C@H](O)[C@H](O)[C@H]1O` [Compound 8, quercitrin], the half-inhibitory concentration (IC50) in assay [1] was 6560 µM; on mushroom tyrosinase, 4960 µM; in assay [3] it was above 500 µM; in assay [4], above 100000 µM. The inhibition at 1000 µg/mL in assay [2] turned out to be 40.11 ± 0.31%. Also, the “Tyrosinase Inhibition (%)” value in the assay with mushroom tyrosinase is on record as 39.17 ± 0.86%.

Consider `C[C@@H]1O[C@@H](Oc2c(-c3cc(O)c(O)c(O)c3)oc3cc(Oc4cc(O)c5c(=O)c(O[C@@H]6O[C@@H](C)[C@H](O)[C@@H](O)[C@H]6O)c(-c6cc(O)c(O)c(O)c6)oc5c4)cc(O)c3c2=O)[C@H](O)[C@H](O)[C@H]1O` [Compound 10, myricetin-3-O-rhamnoside-(C7-I-O-C7-II)-myricetin-3-O-rhamnoside], for which the IC50 in assay [1] came out at 560 µM; at mushroom tyrosinase it was 650 µM; in assay [3] it was 45 µM; in assay [4], 530 µM. In addition, the inhibition at 1000 µg/mL in assay [2] came to 61.3 ± 0.38%. For the same compound, the “Tyrosinase Inhibition (%)” value with mushroom tyrosinase was 66.04 ± 0.62%.

With `CC[C@H](CC[C@@H](C)[C@H]1CC[C@H]2[C@@H]3CC=C4C[C@@H](O[C@@H]5O[C@H](CO)[C@@H](O)[C@H](O)[C@H]5O)CC[C@]4(C)[C@H]3CC[C@]12C)C(C)C` [Compound 11], the IC50 in assay [1] was above 100000 µM; on mushroom tyrosinase it was 8840 µM; in assay [3] it was above 500 µM; in assay [4], above 100000 µM. Moreover, the inhibition at 1000 µg/mL in assay [2] amounted to 40.8 ± 0.41%. The “Tyrosinase Inhibition (%)” value in the assay with mushroom tyrosinase amounted to 29.79 ± 0.88%.

In the case of `CC(=O)CCc1ccc(O[C@@H]2O[C@H](CO)[C@@H](O)[C@H](O)[C@H]2O)cc1` [Compound 12, 4-(4′-Hydroxyphenyl)-2-butanone-4′-O-β-D-glucopyranoside], the IC50 in assay [1] was 34900 µM; on mushroom tyrosinase, 7470 µM; in assay [3] it was above 500 µM; in assay [4], above 100000 µM. Moreover, the inhibition at 1000 µg/mL in assay [2] came to 39.8 ± 0.53%. The “Tyrosinase Inhibition (%)” value in the assay with mushroom tyrosinase is given as 35.63 ± 1.01%.

On to `O=C(O)c1cc(O)c(O)c(O)c1` [Compound 13, gallic acid], for which the concentration for half-maximal inhibition (IC50) in assay [1] was 770 µM; on mushroom tyrosinase, 590 µM; in assay [3], 179 µM; in assay [4], above 100000 µM. For the same compound, the inhibition at 1000 µg/mL in assay [2] is 71.74 ± 0.4%. Further, the “Tyrosinase Inhibition (%)” value in the assay with mushroom tyrosinase is listed as 80.00 ± 0.78%.

As for `COC(=O)C[C@H]1CCC(=O)[C@H]1C/C=C\CCO[C@@H]1O[C@H](CO)[C@@H](O)[C@H](O)[C@H]1O` [Compound 14, methyl-β-D-glucopyranosyl tuberonate], the IC50 in assay [1] was above 100000 µM; in assay [3] it was above 500 µM; in assay [4], above 100000 µM. Further, the inhibition at 1000 µg/mL in assay [2] was 47.18 ± 0.16%. In addition, the “Tyrosinase Inhibition (%)” value in the assay on mushroom tyrosinase is listed as 37.71 ± 0.56%.

Take `O=C1c2c(O[C@@H]3O[C@H](CO)[C@@H](O)[C@H](O)[C@H]3O)cc(O)cc2OC1(O)Cc1ccc(O)cc1` (stereo partly drawn) [Compound 15, hovetrichoside C]: the IC50 was above 100000 µM in assay [1], 4040 µM on mushroom tyrosinase, above 500 µM in assay [3] and above 100000 µM in assay [4]. For the same compound, in assay [2], the inhibition at 1000 µg/mL was 39.91 ± 0.36%. In the assay with mushroom tyrosinase, the “Tyrosinase Inhibition (%)” value was determined as 42.08 ± 0.54%.

For `O=C1O[C@H]([C@@H](O)CO)C(O)=C1O` [L-ascorbic acid, reference compound], the IC50 in assay [1] stood at 440 µM; in assay [3], 156 µM; in assay [4], 1610 µM.

Consider kaempferol-3-O-rutinoside [Compound 9], for which the half-inhibitory concentration (IC50) in assay [1] is above 100000 µM; in assay [2] (read-out: Acetylcholinesterase inhibition IC50) it was above 1000 µM; in assay [3], above 500 µM; in assay [4], 27600 µM. The “Acetylcholinesterase Inhibition (%)” value in assay [2] (at initial concentration of 1 mg/mL, means ± SEMs) worked out at 39.90 ± 0.33%. Further, the “Tyrosinase Inhibition (%)” value in the assay on mushroom tyrosinase is recorded as 23.54 ± 1.04%.
